Consider 9 compounds from US20240237646A1, “METHODS OF DECREASING PLANT INJURY AND IMPROVING CROP YIELD” (priority 2023, published 2024).

One data set relates to soybeans (Glycine max). The settings on record: fomesafen 350 g ai/ha alone. An excerpt:
The study was arranged in a randomized complete block design with 6 replicates in conventionally tilled soybeans (Glycine max).
Herbicides were applied in a water carrier of 20 gallons per acre and treatments were applied at first flower (V5/R1). All fomesafen treatments contained an adjuvant system of 1% v/v crop oil concentrate and 2.5% v/v urea ammonium nitrate as is consistent with product label instructions.

Data set [1] has as its system genetically modified (GMO) soybeans engineered to resist 2,4-D. Put plainly: Study, B Sure + herbicides in GMO soybeans (canopy rating). It is filed as in vivo, soybean. The conditions noted are these: lactofen 218, 2,4-D choline 1064, chlorimuron 13 g ai/ha; for Canopy rating relative to % ground cover: GMO soybeans V3-R1, B Sure 1 pt/A in mixtures, larger = greater crop vigor; for % Increase in soybean canopy measure with B Sure ® added: herbicide + B Sure 1 pt/A compared to the herbicide applied alone. An excerpt: Treatments included 1) B Sure® 1 pt/A; 2) Lactofen 218 g ai/ha; 3) Lactofen 218 g ai/ha+B Sure® 1 pt/A; 4) 2,4-D choline 1064 g ai/ha; 5) 2,4-D choline 1064 g ai/ha+B Sure® 1 pt/A; 6) chlorimuron 13 g ai/ha; 7) chlorimuron 13 g ai/ha+B Sure® 1 pt/A. Adjuvants applied varied by treatment and were consistent with product label recommendations. A preemergence herbicide was applied to all treatments in order to reduce competition from weed species that would increase variability in the study. A canopy rating was made which evaluated the % ground cover differences of the soybeans associated with the various treatments. In these measurements, the larger ground cover number represents a greater amount of soybean leaf tissue which represents greater crop vigor and overall soybean health.

For data set [2], the system named is genetically modified (GM) soybeans (Enlist E3® soybeans). Put plainly: Four field studies, B Sure + lactofen or 2,4-D in GM soybeans (yield). The class given is in vivo, Glycine max. The settings on record: for Yield (bushels/acre): lactofen 210 g ai/ha, 2,4-D choline salt 2,527 g ai/ha, check 62.2. As for the experimental part: Four field studies were conducted in 2023 in the states of Ohio, Nebraska, Indiana, and Illinois to determine the influence of the “HYT plant ameliorant” B Sure® at 1,170 mls/ha on soybean (Glycine max) yield when applied in combinations with the herbicides lactofen at 210 g ai/ha and 2,4-D (as its choline salt) at 2,527 g ai/ha on genetically modified (GM) soybeans (Enlist E3® soybeans) created to tolerate applications of 2,4-D, glufosinate, and glyphosate. Treatments were applied using a water carrier with crop oil concentrate added to all treatments at 1% v/v and ammonium sulfate at 2.24 kg/ha added to herbicide containing treatments. Yields were adjusted to constant moisture and recorded in bushels/acre. […] All plots were maintained weed free.

Data set [3] has as its system cotton (Gossypium hirsutum). In words: Six field studies, B Sure + trifloxysulfuron in cotton (visual injury). The conditions noted are these: trifloxysulfuron 8 g ai/ha alone, rated 2 to 3 weeks after application. It is filed as in vivo. An excerpt: The studies were arranged in a randomized complete block design with 4 replicates in conventionally tilled cotton. Evaluations were combined over locations and plots were maintained weed free over the duration of the trial.
Herbicides were applied in a water carrier to cotton at three separate stages of growth: 1) cotyledon-2 leaf; 2) 3-4 leaf; and 3) 5 leaf or greater. All trifloxysulfuron treatments contained a nonionic surfactant at 0.25% v/v as is consistent with product label instructions. Treatments included in the trial were the following: 1) trifloxysulfuron 8 g ai/ha-cotyledon-2 leaf cotton; 2) trifloxysulfuron 8 g ai/ha+B Sure® 1,170 mls/ha-cotyledon-2 leaf cotton; 3) trifloxysulfuron 8 g ai/ha+B Sure® 2 pint/acre-cotyledon-2 leaf cotton; 4) trifloxysulfuron 8 g ai/ha-3-4 leaf cotton, 5) trifloxysulfuron 8 g ai/ha+B Sure® 1,170 mls/ha-3-4 leaf cotton; 6) trifloxysulfuron 8 g ai/ha+B Sure® 2,340 mls/ha-3-4 leaf cotton; 7) trifloxysulfuron 8 g ai/ha-5 leaf or greater cotton, 8) trifloxysulfuron 8 g ai/ha+B Sure® 1,170 mls/ha-5 leaf or greater cotton; 9) trifloxysulfuron 8 g ai/ha+B Sure® 2, 340 mls/ha-5 leaf or greater cotton; 10) Check.

Data set [4] has as its system creeping bentgrass (Agrostis stolonifera). In words: Field study, B Sure + PCNB on creeping bentgrass (visual injury). The conditions noted are these: PCNB 227 g ai/1,000 sq ft, B Sure 6 fl oz/1,000 sq ft in the mixture. The text has this: PCNB was applied at 227 g ai/per 1,000 square feet. […] Treatments were applied on July 14th using an application volume of 2 gallons per 1,000 square feet. Creeping bentgrass injury ratings were made five times corresponding to 3, 7, 10, 14 and 28 days after application (DAA).

Data set [5] concerns creeping bentgrass (Agrostis palustris) turf. The conditions noted are these: 6 applications every two weeks, 8 visual ratings combined, trinexapac-ethyl 514, paclobutrazol 280, prohexadione-calcium 154, flurprimidol 15 g ai/ha, B Sure 19,091 ml/ha in mixtures.
Excerpt: Each plant growth regulator (PGR) combination was applied in 2 gallons of water per 1,000 square feet and applications were made 6 times with application intervals every two weeks. Visual injury was rated 8 times between June 8th and August 11th on a percent scale from 0 to 100 where 0 equals no visual response and 100 equals complete plant death.

As for `CS(=O)(=O)NC(=O)c1cc(Oc2ccc(C(F)(F)F)cc2Cl)ccc1[N+](=O)[O-]` [Fomesafen, fomesafen], in the data set on soybeans (Glycine max), the “Soybean Yield (% increase over untreated check)” value amounted to 4.6%. Further, the “% Injury” value with soybeans (Glycine max) (soybean, applied at V5/R1, visual scale 0-100) was 7%.
Turning to `C[N+](C)(C)CCO.O=C([O-])COc1ccc(Cl)cc1Cl` [2,4-D Choline, 2,4-D choline salt], in data set [1], the “Canopy rating relative to % ground cover” value is 6.18 and the “% Increase in soybean canopy measure with B Sure ® added” value (shortened to “% Increase in soybean canopy measure”) came out at 12.9%. Also, in data set [2] (B Sure 1,170 mls/ha, lactofen 210 g ai/ha, 2,4-D 2,527 g ai/ha), the “soybean yield increase over the check” value is on record as 3.1 bushels/acre. The “Yield (bushels/acre)” value in data set [2] (B Sure 1,170 mls/ha) was 65.3 bushels/acre.
As for `COc1cc(OC)nc(NC(=O)NS(=O)(=O)c2ncccc2OCC(F)(F)F)n1` [Trifloxysulfuron, trifloxysulfuron], the “% Injury” value in data set [3] (3-4 leaf) was 15%; in data set [3] (5+ leaf), 5%; in data set [3] (Cotyledon-2 leaf) it was 18%.
Regarding `CCOC(=O)C(C)OC(=O)c1cc(Oc2ccc(C(F)(F)F)cc2Cl)ccc1[N+](=O)[O-]` (centres unmarked) [Lactofen, lactofen], in data set [1], the “Canopy rating relative to % ground cover” value was 2.99 and the “% Increase in soybean canopy measure” value was 7.4%. Besides, the “Yield (bushels/acre)” value in data set [2] (B Sure 1,170 mls/ha) came out at 61.5 bushels/acre. Moreover, in data set [2] (lactofen 210 g ai/ha), the “soybean yield reduction over the untreated check” value amounted to 0.7 bushels/acre.
Regarding `O=[N+]([O-])c1c(Cl)c(Cl)c(Cl)c(Cl)c1Cl` [PCNB, pentachloronitrobenzene], in data set [4] (3 days after application), the “% Injury 3 DAA” value is recorded as 20%. In addition, the “% Injury 7 DAA” value in data set [4] (7 days after application) came to 100%. In data set [4] (10 days after application), the “% Injury 10 DAA” value was 100%. In addition, the “% Injury 14 DAA” value in data set [4] (14 days after application) is on record as 100%. Besides, in data set [4] (28 days after application (end of trial)), the “% Injury 28 DAA” value was around 100%.
In the case of `CC(C)(C)[C@@H](O)[C@@H](Cc1ccc(Cl)cc1)n1cncn1` (racemic) [Paclobutrazol], the “% Phytotoxicity” value in data set [5] is reported as 10%.
For the compound Prohexadione-calcium, the “% Phytotoxicity” value in data set [5] turned out to be 12%.
For `COc1cc(Cl)nc(NC(=O)NS(=O)(=O)c2ccccc2C(=O)O)n1` [Chlorimuron, chlorimuron], in data set [1], the “Canopy rating relative to % ground cover” value worked out at 6.25 and the “% Increase in soybean canopy measure” value worked out at 10.9%.
For the compound `CCOC(=O)C1CC(=O)C(=C(O)C2CC2)C(=O)C1` (centres unmarked) [Trinexapac-ethyl], the “% Phytotoxicity” value in data set [5] turned out to be 10%.
